Measured values published in patent EP2881391A1, “Spiroindoline carbocycle derivatives and pharmaceutical compositions thereof” (Bayer Pharma Aktiengesellschaft, priority 2013, dated 2015).

Target: T1, human GnRH receptor (Homo sapiens, UniProt P30968)
T1 construct: line established by Prof; Thomas Gudermann; host or cells: CHO cells
T1 sequence (P30968 1-328): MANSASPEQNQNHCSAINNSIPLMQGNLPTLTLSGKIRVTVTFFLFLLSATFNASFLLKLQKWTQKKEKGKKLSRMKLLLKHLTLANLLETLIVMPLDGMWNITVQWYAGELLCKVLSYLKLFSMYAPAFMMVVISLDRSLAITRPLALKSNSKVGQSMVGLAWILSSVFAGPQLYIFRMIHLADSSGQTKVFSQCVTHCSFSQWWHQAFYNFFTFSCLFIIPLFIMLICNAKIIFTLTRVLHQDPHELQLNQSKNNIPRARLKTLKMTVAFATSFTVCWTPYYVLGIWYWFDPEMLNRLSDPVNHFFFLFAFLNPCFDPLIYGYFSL
Experiment: IP-One HTRF assay (inhibition of GnRH-R activation by buserelin)
Type: cell-based
Details: IP-One HTRF assay with buserelin (at EC80) stimulation; CHO cells stably expressing human GnRH receptor; tested 20 µM to 1 nM; read-out: Potency IC50
Excerpt: By using homogenous time-resolved fluorescence resonance energy transfer (HTRF), the generation of one component of the GnRH-R signalling cascade can be measured. After stimulation of CHO cells stably expressing human GnRH receptor (established by Prof. Thomas Gudermann, currently University of Marburg, Germany; supplied as frozen cell aliquots by Cell Culture Services, Hamburg, Germany) with the EC80 of the GnRH agonist buserelin, Gq protein-coupled receptor signalling cascade is activated resulting in PLC-dependent cleavage of PIP2 to Inositol-1,4,5-triphosphate (IP3) and Diacylglycerol. The second messenger IP3 is degraded intracellularly to myo-inositol. Inhibition of the final degradation step from Inositol-1-phosphate (IP1) to myo-inositol by addition of lithium chloride leads to accumulation of IP1 in the cells. In cell lysates, IP1 can be detected via an antibody-based HTRF detection technology, where IP1 can displace the FRET acceptor IP1-d2 from binding by Terbium-labelled anti-IP1 antibody as donor resulting in a signal decrease. Compounds were tested for their capability of inhibiting GnRH-R activation by buserelin. For all IP-One HTRF® assays reagents of Cisbio Bioassays (IP-One Tb Jumbo kit, #62IPAPEJ; Cisbio Bioassays, Bagnols sur Cèze Cedex, France) were used.
For the assay, frozen cell aliquots were thawed and a cell suspension (3.33x10^6 cells/ml) containing IP1-d2 (dilution 1:40) was prepared and incubated at 37°C. After 1 h 3 µl of the cell suspension were added to 50 nl of a 100-fold concentrated solution of the test compound in DMSO pre-dispensed in a well of a white low-volume 384-well microtiter plate (Greiner Bio-One, Frickenhausen, Germany). The mixture was incubated for 20 min at 22°C to allow for pre-binding of the test compound to the GnRH-R. The receptor signaling cascade was stimulated by addition of 2 µl buserelin or LHRH (at EC50 or EC80) in stimulation buffer (10 mM Hepes pH 7.4, 1 mM CaCl2, 0.5 mM MgCl2, 4.2 mM KCI, 146 mM NaCl, 5.5 mM α-D-Glucose, 0.05% BSA, 125 mM LiCl (final assay concentration 50 mM) in aqua dest.). Plates were incubated for 1 h at 37°C and 5% carbon dioxide before the cells were lysed by adding 3 µl Terbium-labelled anti-IP1 antibody (1:40) diluted in Conjugate & Lysis buffer as supplied with the kit. After an incubation for 1 h at 22°C to enable complete cell lysis and antibody binding to free IP1 or IP1-d2, plates were measured in an HTRF reader, e.g. a RUBYstar, PHERAstar (both BMG Labtechnologies, Offenburg, Germany) or a Viewlux (PerkinElmer LAS, Rodgau-Jügesheim, Germany). From the fluorescence emissions at 665 nm (FRET) and at 620 nm (background signal of Terbium-antibody), the ratio (emission at 665 nm divided by emission at 620 nm) was calculated and the data were normalized (reaction without test compound = 0% inhibition; all other assay components except agonist = 100% inhibition). On the same microtiter plate, compounds were tested at 10 different concentrations in the range of 20 µM to 1 nM (20 µM, 6.7 µM, 2.2 µM, 0.74 µM, 0.25 µM, 82 nM, 27 nM, 9.2 nM, 3.1 nM and 1 nM; dilution series prepared before the assay at the level of the 100-fold conc. stock solutions by serial 1:3 dilutions in 100% DMSO) in duplicate values for each concentration. By using an in-house software, the IC50 values were calculated by a 4 parameter fit. The data reveal that the compounds of the present invention have antagonist activities on the human GnRH receptor. Within the meaning of the present invention the antagonist activity is reflected by the ability of a compound of the invention to antagonize human GnRH receptor stimulation in IP-One HTRF® assay at least three times the standard deviation over the background level.

SMILES	IC50
COC(=O)c1cccc(S(=O)(=O)N2c3ccc(C(=O)NCc4ncc(C(F)(F)F)cc4F)cc3C3(CCC(O)(C(F)(F)F)CC3)C2C2CC2)c1 (stereo not shown) [Example 28, methyl 3-{[2'-cyclopropyl-5'-({[3-fluoro-5-(trifluoromethyl)pyridin-2-yl]methyl}carbamoyl)-4-hydroxy-4-(trifluoromethyl)spiro[cyclohexane-1,3'-indol]-1'(2'H)-yl]sulfonyl}benzoate]	1780 nM
COC(=O)c1cccc(S(=O)(=O)N2c3ccc(C(=O)NCc4ncccc4C(F)(F)F)cc3C3(CCC(O)(C(F)(F)F)CC3)C2C2CC2)c1 (stereo not shown) [Example 29, methyl 3-{[2'-cyclopropyl-4-hydroxy-4-(trifluoromethyl)-5'-({[3-(trifluoromethyl)pyridin-2-yl]methyl}carbamoyl)spiro[cyclohexane-1,3'-indol]-1'(2'H)-yl]sulfonyl}benzoate]	612 nM
COC(=O)c1cccc(NC(=O)c2ccc3c(c2)C2(CCC(O)(C(F)(F)F)CC2)C(C2CC2)N3S(=O)(=O)c2cccc(OC)c2)c1 (stereo not shown) [Example 31, methyl 3-[({2'-cyclopropyl-4-hydroxy-1'-[(3-methoxyphenyl)su Ifonyl]-4-(trifluoromethyl)-1',2'-dihydrospiro[cyclohexane-1,3'-indol]-5'-yl}carbonyl)amino] benzoate]	669 nM
COC(=O)c1cccc(NC(=O)c2ccc3c(c2)C2(CCC(O)(C(F)(F)F)CC2)C(CC=C(C)C)N3S(=O)(=O)c2ccc(F)cc2)c1 (stereo not shown) [Example 32, methyl 3-[({1'-[(4-fluorophenyl)sulfonyl]-4-hydroxy-2'-(3-methylbut-2-en-1-yl)-4-(trifluoromethyl)-1',2'-dihydrospiro[cyclohexane-1,3'-indol]-5'-yl}carbonyl)amino] benzoate]	494 nM
COc1cccc(S(=O)(=O)N2c3ccc(C(=O)Nc4cc[nH]n4)cc3C3(CCC(O)(C(F)(F)F)CC3)C2C2CC2)c1 (stereo not shown) [Example 33, 2'-cyclopropyl-4-hydroxy-1'-[(3-methoxyphenyl)su Ifonyl]-N-(1H-pyrazol-3-yl)-4-(trifluoromethyl)-1',2'-dihydrospiro[cyclohexane-1,3'-indole]-5'-carboxamide]	2230 nM
COc1cccc(S(=O)(=O)N2c3ccc(C(=O)Nc4cccc(C)c4)cc3C3(CCC(O)(C(F)(F)F)CC3)C2C2CC2)c1 (stereo not shown) [Example 34, 2'-cyclopropyl-4-hydroxy-1'-[(3-methoxyphenyl)su Ifonyl]-N-(3-methylphenyl)-4-(trifluoromethyl)-1',2'-dihydrospiro[cyclohexane-1,3'-indole]-5'-carboxamide]	3410 nM
COc1cccc(S(=O)(=O)N2c3ccc(C(=O)Nc4cccc(C(=O)O)c4)cc3C3(CCC(O)(C(F)(F)F)CC3)C2C2CC2)c1 (stereo not shown) [Example 35, 3-[({2'-cyclopropyl-4-hydroxy-1 '-[(3-methoxyphenyl)su Ifonyl]-4-(trifluoromethyl)-1',2'-dihydrospiro[cyclohexane-1,3'-indol]-5'-yl}carbonyl)amino] benzoic acid]	1380 nM
COc1cccc(S(=O)(=O)N2c3ccc(C(=O)Nc4cccc(S(C)(=O)=O)c4)cc3C3(CCC(O)(C(F)(F)F)CC3)C2C2CC2)c1 (stereo not shown) [Example 36, 2'-cyclopropyl-4-hydroxy-1'-[(3-methoxyphenyl)su Ifonyl]-N-[3-(methylsulfonyl)phenyl]-4-(trifluoromethyl)-1',2'-dihydrospiro[cyclohexane-1,3'-indole]-5'-carboxamide]	1270 nM
COc1cccc(S(=O)(=O)N2c3ccc(C(=O)Nc4cccc(S(N)(=O)=O)c4)cc3C3(CCC(O)(C(F)(F)F)CC3)C2C2CC2)c1 (stereo not shown) [Example 37, 2'-cyclopropyl-4-hydroxy-1'-[(3-methoxyphenyl)su Ifonyl]-N-(3-sulfamoylphenyl)-4-(trifluoromethyl)-1',2'-dihydrospiro[cyclohexane-1,3'-indole]-5'-carboxamide]	2640 nM
COc1cccc(S(=O)(=O)N2c3ccc(C(=O)Nc4ccon4)cc3C3(CCC(O)(C(F)(F)F)CC3)C2C2CC2)c1 (stereo not shown) [Example 38, 2'-cyclopropyl-4-hydroxy-1'-[(3-methoxyphenyl)su Ifonyl]-N-(1,2-oxazol-3-yl)-4-(trifluoromethyl)-1',2'-dihydrospiro[cyclohexane-1,3'-indole]-5'-carboxamide]	1680 nM
COc1cccc(S(=O)(=O)N2c3ccc(C(=O)Nc4cncc(C)c4)cc3C3(CCC(O)(C(F)(F)F)CC3)C2C2CC2)c1 (stereo not shown) [Example 39, 2'-cyclopropyl-4-hydroxy-1'-[(3-methoxyphenyl)su Ifonyl]-N-(5-methylpyridin-3-yl)-4-(trifluoromethyl)-1',2'-dihydrospiro[cyclohexane-1,3'-indole]-5'-carboxamide]	1680 nM
COc1cccc(S(=O)(=O)N2c3ccc(C(=O)Nc4cncc(C(F)(F)F)c4)cc3C3(CCC(O)(C(F)(F)F)CC3)C2C2CC2)c1 (stereo not shown) [Example 40, 2'-cyclopropyl-4-hydroxy-1'-[(3-methoxyphenyl)su Ifonyl]-4-(trifluoromethyl)-N-[5-(trifluoromethyl)pyridin-3-yl]-1',2'-dihydrospiro[cyclohexane-1,3'-indole]-5'-carboxamide]	5650 nM
COc1cccc(S(=O)(=O)N2c3ccc(C(=O)Nc4ncco4)cc3C3(CCC(O)(C(F)(F)F)CC3)C2C2CC2)c1 (stereo not shown) [Example 41, 2'-cyclopropyl-4-hydroxy-1'-[(3-methoxyphenyl)su Ifonyl]-N-(1,3-oxazol-2-yl)-4-(trifluoromethyl)-1',2'-dihydrospiro[cyclohexane-1,3'-indole]-5'-carboxamide]	1490 nM
COc1cccc(S(=O)(=O)N2c3ccc(C(=O)NCC4CCCCC4)cc3C3(CCC(O)(C(F)(F)F)CC3)C2C2CC2)c1 (stereo not shown) [Example 42, N-(cyclohexylmethyl) -2'-cyclopropyl-4-hydroxy-1'-[(3-methoxyphenyl)su Ifonyl]-4-(trifluoromethyl)-1',2'-dihydrospiro[cyclohexane-1,3'-indole]-5'-carboxamide]	1880 nM
COc1cccc(S(=O)(=O)N2c3ccc(C(=O)NCc4ccccc4Cl)cc3C3(CCC(O)(C(F)(F)F)CC3)C2C2CC2)c1 (stereo not shown) [Example 43, N-(2-chlorobenzyl)-2'-cyclopropyl-4-hydroxy-1'-[(3-methoxyphenyl)su Ifonyl]-4-(trifluoromethyl)-1',2'-dihydrospiro[cyclohexane-1,3'-indole]-5'-carboxamide]	621 nM
COc1cccc(S(=O)(=O)N2c3ccc(C(=O)NCc4ncccc4C(F)(F)F)cc3C3(CCC(O)(C(F)(F)F)CC3)C2C2CC2)c1 (stereo not shown) [Example 44, 2'-cyclopropyl-4-hydroxy-1'-[(3-methoxyphenyl)su Ifonyl]-4-(trifluoromethyl)-N-{[3-(trifluoromethyl)pyridin-2-yl]methyl}-1',2'-dihydrospiro[cyclohexane-1,3'-indole]-5'-carboxamide]	403 nM
